Bridge positions count the residues as written; N and C are the ends. Square brackets hold non-standard residues; d marks the D form. Peptide text beside a SMILES is read from it. * marks the point of attachment. Phe(4-COOH) = N[C@@H](Cc1ccc(C(=O)O)cc1)C(=O)O; Bip = N[C@@H](Cc1ccc(-c2ccccc2)cc1)C(=O)O; Phe(3-Me) = Cc1cccc(C[C@H](N)C(=O)O)c1; 4Pal = N[C@@H](Cc1ccncc1)C(=O)O; Cha = N[C@@H](CC1CCCCC1)C(=O)O; Carboxymethyl = O=C(O)C*; Orn = NCCC[C@H](N)C(=O)O; Pra = C#CC[C@H](N)C(=O)O; Aun = NCCCCCCCCCCC(=O)O; Dab = NCC[C@H](N)C(=O)O; Dap = NC[C@H](N)C(=O)O; AEEA = NCCOCCOCC(=O)O
These compounds were tested against T1, PD-1/PD-L1 interaction (PE-labeled human PD-L1-Ig binding to Jurkat cell line over-expressing human PD-1) (Homo sapiens, UniProt Q15116) (assay: Jurkat-PD-1 Cell Binding High-Content Screening Assay (CBA)). Settings: Jurkat cell line over-expressing human PD-1; PE-labeled PD-L1-Ig 20 nM final; read-out: Jurkat hPD1-PDL1 IC50.
T1 construct: expressed in transfected cells; host or cells: Jurkat
T1 sequence (Q15116 25-288): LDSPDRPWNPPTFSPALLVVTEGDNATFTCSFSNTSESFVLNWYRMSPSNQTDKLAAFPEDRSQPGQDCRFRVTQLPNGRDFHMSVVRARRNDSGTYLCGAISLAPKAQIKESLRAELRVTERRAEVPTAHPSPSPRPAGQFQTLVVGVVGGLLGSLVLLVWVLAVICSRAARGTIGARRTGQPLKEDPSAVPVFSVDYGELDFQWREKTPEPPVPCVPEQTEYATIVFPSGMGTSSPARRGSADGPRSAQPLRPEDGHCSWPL
Assay type: cell-based
Method in brief: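 Binding of fluorescent PD-L1-Ig (phycoerythrin on Ig tag, 20 nM final, 1 h) measured by high-content imaging of fixed, Hoechst-counterstained Jurkat-hPD-1 cells. Compound added 2 h at 37° C beforehand, in DMEM with 10% fetal calf serum.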

Point of comparison: C#CC[C@H](NC(=O)COCCOCCNC(=O)[C@H](CCN)NC(=O)[C@@H]1CSCC(=O)N[C@@H](Cc2ccncc2)C(=O)N[C@@H](Cc2ccc(OCC(=O)O)cc2)C(=O)N[C@@H](CC(=O)O)C(=O)N[C@@H](Cc2c[nH]c3ccccc23)C(=O)N[C@@H](C(C)C)C(=O)N[C@@H](Cc2ccc(-c3ccccc3)cc2)C(=O)N[C@@H]([C@@H](C)CC)C(=O)N[C@@H](CCCN)C(=O)N[C@H](CC(C)C)C(=O)N[C@@H](CCN)C(=O)N[C@@H](CC(C)C)C(=O)N[C@@H](C(C)C)C(=O)N[C@@H]([C@@H](C)O)C(=O)N1)C(=O)N[C@@H](CN)C(=O)NCCCCCCCCCCC(=O)O [Compound 1193] ({CH2CO}-[4Pal]Y(Carboxymethyl)DWV[Bip]I[Orn][dL][Dab]LVTC[Dab][AEEA][Pra][Dap][Aun]-OH; thioether N-14), IC50 10.3 nM. Against it:
- CC[C@H](C)[C@@H]1NC(=O)[C@H](Cc2ccc(-c3ccccc3)cc2)NC(=O)[C@H](C(C)C)NC(=O)[C@H](Cc2cccc(C)c2)NC(=O)[C@H](CC(=O)O)NC(=O)[C@H](Cc2ccc(C(=O)O)cc2)NC(=O)[C@H](Cc2ccncc2)NC(=O)CSC[C@@H](C(=O)NCCOCCOCC(=O)N[C@@H](CCCCN)C(=O)NCCCCCCCCCCC(=O)O)NC(=O)[C@H]([C@@H](C)O)NC(=O)[C@H](C(C)C)NC(=O)[C@H](CC2CCCCC2)NC(=O)[C@H](CCN)NC(=O)[C@@H](CC(C)C)NC(=O)[C@H](CCCN)NC1=O [Compound 1191] ({CH2CO}-[4Pal][Phe(4-COOH)]D[Phe(3-Me)]V[Bip]I[Orn][dL][Dab][Cha]VTC[AEEA]K[Aun]-OH; thioether N-14) — 1.9-fold higher, 19.7 nM
- CC[C@H](C)[C@@H]1NC(=O)[C@H](Cc2ccc(-c3ccccc3)cc2)NC(=O)[C@H](C(C)C)NC(=O)[C@H](Cc2cccc(C)c2)NC(=O)[C@H](CC(=O)O)NC(=O)[C@H](Cc2ccc(C(=O)O)cc2)NC(=O)[C@H](Cc2ccncc2)NC(=O)CSC[C@@H](C(=O)NCCOCCOCC(=O)N[C@@H](CCCNC(=N)N)C(=O)NCCCCCCCCCCC(=O)O)NC(=O)[C@H]([C@@H](C)O)NC(=O)[C@H](C(C)C)NC(=O)[C@H](CC2CCCCC2)NC(=O)[C@H](CCN)NC(=O)[C@@H](CC(C)C)NC(=O)[C@H](CCCN)NC1=O [Compound 1192] ({CH2CO}-[4Pal][Phe(4-COOH)]D[Phe(3-Me)]V[Bip]I[Orn][dL][Dab][Cha]VTC[AEEA]R[Aun]-OH; thioether N-14) — 4.4-fold higher, 45.5 nM
- C#CC[C@H](NC(=O)COCCOCCNC(=O)[C@H](CCN)NC(=O)[C@@H]1CSCC(=O)N[C@@H](Cc2ccncc2)C(=O)N[C@@H](Cc2ccc(OCC(=O)O)cc2)C(=O)N[C@@H](CC(=O)O)C(=O)N[C@@H](Cc2c[nH]c3ccccc23)C(=O)N[C@@H](C(C)C)C(=O)N[C@@H](Cc2ccc(-c3ccccc3)cc2)C(=O)N[C@@H]([C@@H](C)CC)C(=O)N[C@@H](CCCN)C(=O)N[C@H](CC(C)C)C(=O)N[C@@H](CCN)C(=O)N[C@@H](CC(C)C)C(=O)N[C@@H](C(C)C)C(=O)N[C@@H]([C@@H](C)O)C(=O)N1)C(=O)N[C@@H](CCN)C(=O)NCCCCCCCCCCC(=O)O [Compound 1194] ({CH2CO}-[4Pal]Y(Carboxymethyl)DWV[Bip]I[Orn][dL][Dab]LVTC[Dab][AEEA][Pra][Dab][Aun]-OH; thioether N-14) — within 1.5-fold, 14.8 nM
- C#CC[C@H](NC(=O)COCCOCCNC(=O)[C@H](CCN)NC(=O)[C@@H]1CSCC(=O)N[C@@H](Cc2ccncc2)C(=O)N[C@@H](Cc2ccc(OCC(=O)O)cc2)C(=O)N[C@@H](CC(=O)O)C(=O)N[C@@H](Cc2c[nH]c3ccccc23)C(=O)N[C@@H](C(C)C)C(=O)N[C@@H](Cc2ccc(-c3ccccc3)cc2)C(=O)N[C@@H]([C@@H](C)CC)C(=O)N[C@@H](CCCN)C(=O)N[C@H](CC(C)C)C(=O)N[C@@H](CCN)C(=O)N[C@@H](CC(C)C)C(=O)N[C@@H](C(C)C)C(=O)N[C@@H]([C@@H](C)O)C(=O)N1)C(=O)N[C@@H](CCCN)C(=O)NCCCCCCCCCCC(=O)O [Compound 1195] ({CH2CO}-[4Pal]Y(Carboxymethyl)DWV[Bip]I[Orn][dL][Dab]LVTC[Dab][AEEA][Pra][Orn][Aun]-OH; thioether N-14) — within 1.5-fold, 13.7 nM
- C#CC[C@H](NC(=O)COCCOCCNC(=O)[C@H](CCN)NC(=O)[C@@H]1CSCC(=O)N[C@@H](Cc2ccncc2)C(=O)N[C@@H](Cc2ccc(OCC(=O)O)cc2)C(=O)N[C@@H](CC(=O)O)C(=O)N[C@@H](Cc2c[nH]c3ccccc23)C(=O)N[C@@H](C(C)C)C(=O)N[C@@H](Cc2ccc(-c3ccccc3)cc2)C(=O)N[C@@H]([C@@H](C)CC)C(=O)N[C@@H](CCCN)C(=O)N[C@H](CC(C)C)C(=O)N[C@@H](CCN)C(=O)N[C@@H](CC(C)C)C(=O)N[C@@H](C(C)C)C(=O)N[C@@H]([C@@H](C)O)C(=O)N1)C(=O)N[C@@H](CCCCN)C(=O)NCCCCCCCCCCC(=O)O [Compound 1196] ({CH2CO}-[4Pal]Y(Carboxymethyl)DWV[Bip]I[Orn][dL][Dab]LVTC[Dab][AEEA][Pra]K[Aun]-OH; thioether N-14) — within 1.5-fold, 9.6 nM
- C#CC[C@H](NC(=O)COCCOCCNC(=O)[C@H](CCN)NC(=O)[C@@H]1CSCC(=O)N[C@@H](Cc2ccncc2)C(=O)N[C@@H](Cc2ccc(OCC(=O)O)cc2)C(=O)N[C@@H](CC(=O)O)C(=O)N[C@@H](Cc2c[nH]c3ccccc23)C(=O)N[C@@H](C(C)C)C(=O)N[C@@H](Cc2ccc(-c3ccccc3)cc2)C(=O)N[C@@H]([C@@H](C)CC)C(=O)N[C@@H](CCCN)C(=O)N[C@H](CC(C)C)C(=O)N[C@@H](CCN)C(=O)N[C@@H](CC(C)C)C(=O)N[C@@H](C(C)C)C(=O)N[C@@H]([C@@H](C)O)C(=O)N1)C(=O)N[C@@H](CCCNC(=N)N)C(=O)NCCCCCCCCCCC(=O)O [Compound 1197] ({CH2CO}-[4Pal]Y(Carboxymethyl)DWV[Bip]I[Orn][dL][Dab]LVTC[Dab][AEEA][Pra]R[Aun]-OH; thioether N-14) — within 1.5-fold, 14.8 nM
- C#CC[C@H](NC(=O)COCCOCCNC(=O)[C@H](CCN)NC(=O)[C@@H]1CSCC(=O)N[C@@H](Cc2ccncc2)C(=O)N[C@@H](Cc2ccc(OCC(=O)O)cc2)C(=O)N[C@@H](CC(=O)O)C(=O)N[C@@H](Cc2c[nH]c3ccccc23)C(=O)N[C@@H](C(C)C)C(=O)N[C@@H](Cc2ccc(-c3ccccc3)cc2)C(=O)N[C@@H]([C@@H](C)CC)C(=O)N[C@@H](CCCN)C(=O)N[C@H](CC(C)C)C(=O)N[C@@H](CCN)C(=O)N[C@@H](CC(C)C)C(=O)N[C@@H](C(C)C)C(=O)N[C@@H]([C@@H](C)O)C(=O)N1)C(=O)N[C@@H](Cc1c[nH]cn1)C(=O)NCCCCCCCCCCC(=O)O [Compound 1198] ({CH2CO}-[4Pal]Y(Carboxymethyl)DWV[Bip]I[Orn][dL][Dab]LVTC[Dab][AEEA][Pra]H[Aun]-OH; thioether N-14) — within 1.5-fold, 15.1 nM
- C#CC[C@H](NC(=O)COCCOCCNC(=O)[C@H](CCCN)NC(=O)[C@@H]1CSCC(=O)N[C@@H](Cc2ccncc2)C(=O)N[C@@H](Cc2ccc(OCC(=O)O)cc2)C(=O)N[C@@H](CC(=O)O)C(=O)N[C@@H](Cc2c[nH]c3ccccc23)C(=O)N[C@@H](C(C)C)C(=O)N[C@@H](Cc2ccc(-c3ccccc3)cc2)C(=O)N[C@@H]([C@@H](C)CC)C(=O)N[C@@H](CCCN)C(=O)N[C@H](CC(C)C)C(=O)N[C@@H](CCN)C(=O)N[C@@H](CC(C)C)C(=O)N[C@@H](C(C)C)C(=O)N[C@@H]([C@@H](C)O)C(=O)N1)C(=O)N[C@@H](CN)C(=O)NCCCCCCCCCCC(=O)O [Compound 1199] ({CH2CO}-[4Pal]Y(Carboxymethyl)DWV[Bip]I[Orn][dL][Dab]LVTC[Orn][AEEA][Pra][Dap][Aun]-OH; thioether N-14) — within 1.5-fold, 13.3 nM
- C#CC[C@H](NC(=O)COCCOCCNC(=O)[C@H](CCCN)NC(=O)[C@@H]1CSCC(=O)N[C@@H](Cc2ccncc2)C(=O)N[C@@H](Cc2ccc(OCC(=O)O)cc2)C(=O)N[C@@H](CC(=O)O)C(=O)N[C@@H](Cc2c[nH]c3ccccc23)C(=O)N[C@@H](C(C)C)C(=O)N[C@@H](Cc2ccc(-c3ccccc3)cc2)C(=O)N[C@@H]([C@@H](C)CC)C(=O)N[C@@H](CCCN)C(=O)N[C@H](CC(C)C)C(=O)N[C@@H](CCN)C(=O)N[C@@H](CC(C)C)C(=O)N[C@@H](C(C)C)C(=O)N[C@@H]([C@@H](C)O)C(=O)N1)C(=O)N[C@@H](CCN)C(=O)NCCCCCCCCCCC(=O)O [Compound 1200] ({CH2CO}-[4Pal]Y(Carboxymethyl)DWV[Bip]I[Orn][dL][Dab]LVTC[Orn][AEEA][Pra][Dab][Aun]-OH; thioether N-14) — 1.5-fold higher, 15.6 nM
- C#CC[C@H](NC(=O)COCCOCCNC(=O)[C@H](CCCN)NC(=O)[C@@H]1CSCC(=O)N[C@@H](Cc2ccncc2)C(=O)N[C@@H](Cc2ccc(OCC(=O)O)cc2)C(=O)N[C@@H](CC(=O)O)C(=O)N[C@@H](Cc2c[nH]c3ccccc23)C(=O)N[C@@H](C(C)C)C(=O)N[C@@H](Cc2ccc(-c3ccccc3)cc2)C(=O)N[C@@H]([C@@H](C)CC)C(=O)N[C@@H](CCCN)C(=O)N[C@H](CC(C)C)C(=O)N[C@@H](CCN)C(=O)N[C@@H](CC(C)C)C(=O)N[C@@H](C(C)C)C(=O)N[C@@H]([C@@H](C)O)C(=O)N1)C(=O)N[C@@H](CCCN)C(=O)NCCCCCCCCCCC(=O)O [Compound 1201] ({CH2CO}-[4Pal]Y(Carboxymethyl)DWV[Bip]I[Orn][dL][Dab]LVTC[Orn][AEEA][Pra][Orn][Aun]-OH; thioether N-14) — within 1.5-fold, 7.6 nM
- C#CC[C@H](NC(=O)COCCOCCNC(=O)[C@H](CCCN)NC(=O)[C@@H]1CSCC(=O)N[C@@H](Cc2ccncc2)C(=O)N[C@@H](Cc2ccc(OCC(=O)O)cc2)C(=O)N[C@@H](CC(=O)O)C(=O)N[C@@H](Cc2c[nH]c3ccccc23)C(=O)N[C@@H](C(C)C)C(=O)N[C@@H](Cc2ccc(-c3ccccc3)cc2)C(=O)N[C@@H]([C@@H](C)CC)C(=O)N[C@@H](CCCN)C(=O)N[C@H](CC(C)C)C(=O)N[C@@H](CCN)C(=O)N[C@@H](CC(C)C)C(=O)N[C@@H](C(C)C)C(=O)N[C@@H]([C@@H](C)O)C(=O)N1)C(=O)N[C@@H](CCCCN)C(=O)NCCCCCCCCCCC(=O)O [Compound 1202] ({CH2CO}-[4Pal]Y(Carboxymethyl)DWV[Bip]I[Orn][dL][Dab]LVTC[Orn][AEEA][Pra]K[Aun]-OH; thioether N-14) — 1.6-fold higher, 16.7 nM

Reference: patent publication US20260022142A1, “MACROCYCLIC IMMUNOMODULATORS” (Bristol-Myers Squibb Company, priority 2022, published 2026)
